Measured values as given in patent publication US20180340008A1, “ANTIBIOTIC OLIGOPEPTIDE MIMETICS” (priority 2017, published 2018).
Counter-ions that a name gives are not always drawn. Non-standard residues stand in square brackets, D forms with d. Residues, ends and D or L forms follow the SMILES beside them. ξ: configuration not given here. *: point of attachment. ξW = NC(Cc1c[nH]c2ccccc12)C(=O)O; NHOH = ON*

Test system: E. coli (ATTC 8739)
Assay: Zone of inhibition test in Petri dish
Assay type: cell-based
Protocol: Compound A was tested against L-phenylalanine-(S)-2-amino-N-hydroxy-4-(methylthio)butanamide hydrochloride (Example 3) in a side-by-side comparison in a conventional zone of inhibition test. In this test, both compounds were compared at various concentrations against E. coli (ATTC 8739) grown in a Petri dish using the antibiotic kanamycin as a control.

SMILES	strength of zone of inhibition (at 50 μg)	concentration at which a zone of inhibition was shown (Petri dish, kanamycin control, FIG. 1A/1B)	strength of zone of inhibition compared with cpd. A at 50 μg (at 12.5 μg)
CSCC[C@H](NC(=O)CN)C(=O)NO [Compound A, reference compound]	quite weak	–	–
CSCC[C@H](NC(=O)C(N)Cc1c[nH]c2ccccc12)C(=O)NO (stereo partly drawn) [Example 3, L-Tryptophan-(S)-2-amino-N-hydroxy-4-(methylthio)butanamide hydrochloride] (H-[ξW]-Met-{NHOH})	–	12.5 µg	substantially stronger
